Measured values as given in US10414811B2, “Protease-resistant lipidated GLP-1 analogs” (MEDIMMUNE LIMITED, priority 2015, dated 2019).
Where two headings read alike, the source gives them in different places.

Experiments:
Format in all cases: cell-based
[1] = target: T1, human glucagon receptor (GCGR) (Homo sapiens, UniProt P47871); test: cAMP assay, human GCGR cells; conditions: cAMP assay
T1 construct: expressed in transfected cells
Procedure, shortened: (§1)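 Peptide-stimulated cAMP measured by two-step HTRF after a 30 min room-temperature incubation with receptor-expressing cells (hGLP-1R, hGIPR at 1×10^5 cells/ml; hGCGR at 2×10^5 cells/ml). Duplicate dilutions; EC50 from 4-parameter logistic fit of % Delta F.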

[2] = target: T2, human GLP-1 receptor (GLP-1R) (Homo sapiens, UniProt P43220); test: cAMP assay, human GLP-1R cells
T2 construct: expressed in transfected cells
T2 sequence (P43220 24-463): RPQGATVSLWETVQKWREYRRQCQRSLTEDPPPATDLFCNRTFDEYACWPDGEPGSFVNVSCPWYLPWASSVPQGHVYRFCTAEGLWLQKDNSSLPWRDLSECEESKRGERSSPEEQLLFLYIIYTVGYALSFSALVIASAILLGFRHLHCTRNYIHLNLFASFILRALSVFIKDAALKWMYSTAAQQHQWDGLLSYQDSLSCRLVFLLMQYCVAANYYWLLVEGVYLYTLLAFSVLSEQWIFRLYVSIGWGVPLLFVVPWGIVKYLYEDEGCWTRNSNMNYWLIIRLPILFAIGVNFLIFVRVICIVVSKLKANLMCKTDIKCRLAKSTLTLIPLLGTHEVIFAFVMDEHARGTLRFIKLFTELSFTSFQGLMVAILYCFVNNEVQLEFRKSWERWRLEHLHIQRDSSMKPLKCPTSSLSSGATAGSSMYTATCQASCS
Procedure, shortened: as §1

[3] = target: T3, human glucose-dependent insulinotropic peptide receptor (GIPR) (Homo sapiens, UniProt P48546); test: cAMP assay, human GIPR cells; conditions: cAMP assay
T3 construct: expressed in transfected cells
T3 sequence (P48546 22-466): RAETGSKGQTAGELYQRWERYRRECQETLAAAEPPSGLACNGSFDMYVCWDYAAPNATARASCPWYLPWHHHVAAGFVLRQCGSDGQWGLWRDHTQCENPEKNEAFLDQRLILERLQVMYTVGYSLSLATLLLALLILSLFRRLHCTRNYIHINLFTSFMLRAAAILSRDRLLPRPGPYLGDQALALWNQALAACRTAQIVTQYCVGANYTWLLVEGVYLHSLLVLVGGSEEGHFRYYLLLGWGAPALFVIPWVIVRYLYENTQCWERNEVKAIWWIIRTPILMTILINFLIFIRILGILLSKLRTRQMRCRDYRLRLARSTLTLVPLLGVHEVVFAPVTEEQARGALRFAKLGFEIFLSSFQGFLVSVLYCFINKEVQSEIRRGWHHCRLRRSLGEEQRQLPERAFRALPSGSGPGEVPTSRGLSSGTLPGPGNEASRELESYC
Procedure, shortened: as §1

GLP-1R (INS1e assay) = target: T4, GLP-1R (INS1e assay) (Rattus norvegicus, UniProt P32301); test: INS1e assay, cAMP activity at GLP-1R; conditions: mono-lipidated peptides
T4 construct: endogenous in cells; host or cells: INS-1E cells
T4 sequence (P32301 22-463): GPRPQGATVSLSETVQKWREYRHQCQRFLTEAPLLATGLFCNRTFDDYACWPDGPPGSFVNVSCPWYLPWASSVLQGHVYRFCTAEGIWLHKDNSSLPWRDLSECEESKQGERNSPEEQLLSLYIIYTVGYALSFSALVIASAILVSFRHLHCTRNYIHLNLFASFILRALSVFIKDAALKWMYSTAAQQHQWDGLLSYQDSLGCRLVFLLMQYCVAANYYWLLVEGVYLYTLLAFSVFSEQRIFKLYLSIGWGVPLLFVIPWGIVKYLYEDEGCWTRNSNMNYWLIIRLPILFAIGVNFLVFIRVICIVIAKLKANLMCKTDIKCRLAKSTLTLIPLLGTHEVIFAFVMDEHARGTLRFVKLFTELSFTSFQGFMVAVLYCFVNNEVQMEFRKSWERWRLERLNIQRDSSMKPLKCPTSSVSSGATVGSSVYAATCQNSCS
Procedure, shortened: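 cAMP was quantified by two-step HTRF, using anti-cAMP cryptate donor and cAMP-d2 acceptor, each diluted 1/20 in conjugate and lysis buffer. EC50 values of the synthetic peptides were derived from the cAMP readout.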

[4] = first determination (n1), read-out: Primary assay EC50 Gluc-R (n1)
[5] = second determination (n2), read-out: Primary assay EC50 Gluc-R (n2)
[6] = cAMP assay, first determination (n1), read-out: Primary assay EC50 GLP-1R n1
[7] = cAMP assay, second determination (n2), read-out: Primary assay EC50 GLP-1R n2
[8] = mean of n1 and n2, read-out: Mean pM GLP-1R
[9] = first determination (n1), read-out: Primary assay EC50 GIP-R (n1)
[10] = second determination (n2), read-out: Primary assay EC50 GIP-R (n2)
[11] = mean of n1 and n2, read-out: INS1e assay EC50 Mean pM GLP-1R
[12] = replicate n1, read-out: INS1e assay EC50 GLP-1R n1
[13] = replicate n2, read-out: INS1e assay EC50 GLP-1R n2
[14] = Primary assay EC50 Gluc-R (n1), first determination (n1)
[15] = read-out: Primary assay EC50 Gluc-R (n2), second determination (n2)
[16] = Primary assay EC50 GIP-R (n1), first determination (n1)
[17] = read-out: Primary assay EC50 GIP-R (n2), second determination (n2)

T1 sequence (P47871 26-477): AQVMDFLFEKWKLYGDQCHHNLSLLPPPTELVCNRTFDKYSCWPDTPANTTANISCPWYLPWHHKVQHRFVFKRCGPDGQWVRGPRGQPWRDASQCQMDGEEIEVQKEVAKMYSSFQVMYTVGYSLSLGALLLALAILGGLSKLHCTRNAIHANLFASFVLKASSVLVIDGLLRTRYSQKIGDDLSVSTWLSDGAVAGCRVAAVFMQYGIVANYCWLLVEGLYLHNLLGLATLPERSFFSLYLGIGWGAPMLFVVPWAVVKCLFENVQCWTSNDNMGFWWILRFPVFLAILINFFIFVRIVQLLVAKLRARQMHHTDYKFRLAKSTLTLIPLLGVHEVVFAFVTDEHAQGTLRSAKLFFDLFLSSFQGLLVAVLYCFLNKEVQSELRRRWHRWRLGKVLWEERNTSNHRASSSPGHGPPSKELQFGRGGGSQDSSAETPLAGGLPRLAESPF

| EC50 [1, 4] | EC50 [1, 5] | EC50 [3, 9] | EC50 [3, 10] | Structure (SMILES) | EC50 [2, 6] | EC50 [2, 7] | EC50 [2, 8] | EC50 (GLP-1R (INS1e assay); [11]) | EC50 (GLP-1R (INS1e assay); [12]) | EC50 (GLP-1R (INS1e assay); [13]) | EC50 [1, 14] | EC50 [1, 15] | EC50 [3, 16] | EC50 [3, 17] |
| --- | --- | --- | --- | --- | --- | --- | --- | --- | --- | --- | --- | --- | --- | --- |
| ≥ 27 nM | ≥ 27 nM | ≥ 27 nM | ≥ 27 nM | CCCCCCCCCCCC(=O)NCCOCCOCC(=O)NCCOCCOCC(=O)NCCCC[C@H](NC(=O)[C@H](C)NC(=O)[C@H](C)NC(=O)[C@H](CCC(=O)O)NC(=O)CNC(=O)[C@H](CCC(=O)O)NC(=O)[C@H](CC(C)C)NC(=O)[C@](C)(Cc1ccccc1)NC(=O)[C@H](CO)NC(=O)[C@](C)(CO)NC(=O)[C@@H](NC(=O)[C@H](CC(=O)O)NC(=O)[C@H](CO)NC(=O)[C@@H](NC(=O)[C@](C)(Cc1ccccc1)NC(=O)[C@H](CO)NC(=O)CNC(=O)[C@H](CCC(=O)O)NC(=O)C(C)(C)NC(=O)[C@@H](N)Cc1c[nH]cn1)[C@@H](C)O)C(C)C)C(=O)N[C@@H](CCC(=O)O)C(=O)N[C@@](C)(Cc1ccccc1)C(=O)N[C@H](C(=O)N[C@@H](C)C(=O)N[C@@](C)(Cc1ccccc1)C(=O)N[C@H](C(=O)N[C@H](C(=O)N[C@@](C)(CCCCN)C(=O)NCC(=O)NCC(N)=O)C(C)C)C(C)C)[C@@H](C)CC [compound 135] | 5.4 pM | 4.5 pM | 5 pM | 79 pM | 98.6 pM | 59.3 pM |  |  |  |  |
| ≥ 26 nM | ≥ 26 nM | ≥ 26 nM | ≥ 26 nM | CCCCCCCCCCCC(=O)NCCOCCOCC(=O)NCCOCCOCC(=O)NCCOCCOCC(=O)NCCCC[C@H](NC(=O)[C@H](C)NC(=O)[C@H](C)NC(=O)[C@H](CCC(=O)O)NC(=O)CNC(=O)[C@H](CCC(=O)O)NC(=O)[C@H](CC(C)C)NC(=O)[C@](C)(Cc1ccccc1)NC(=O)[C@H](CO)NC(=O)[C@](C)(CO)NC(=O)[C@@H](NC(=O)[C@H](CC(=O)O)NC(=O)[C@H](CO)NC(=O)[C@@H](NC(=O)[C@](C)(Cc1ccccc1)NC(=O)[C@H](CO)NC(=O)CNC(=O)[C@H](CCC(=O)O)NC(=O)C(C)(C)NC(=O)[C@@H](N)Cc1c[nH]cn1)[C@@H](C)O)C(C)C)C(=O)N[C@@H](CCC(=O)O)C(=O)N[C@@](C)(Cc1ccccc1)C(=O)N[C@H](C(=O)N[C@@H](C)C(=O)N[C@@](C)(Cc1ccccc1)C(=O)N[C@H](C(=O)N[C@H](C(=O)N[C@@](C)(CCCCN)C(=O)NCC(=O)NCC(N)=O)C(C)C)C(C)C)[C@@H](C)CC [compound 136] | 3.5 pM | 2.5 pM | 3 pM | 37 pM | 52.6 pM | 21.5 pM |  |  |  |  |
|  |  |  |  | CC[C@H](C)[C@H](NC(=O)[C@](C)(Cc1ccccc1)NC(=O)[C@H](CCC(=O)O)NC(=O)[C@H](CCCCNC(=O)CC[C@H](NC(=O)CCCCCCCCCCCOc1ccc(C(=O)O)cc1)C(=O)O)NC(=O)[C@H](C)NC(=O)[C@H](C)NC(=O)[C@H](CCC(=O)O)NC(=O)CNC(=O)[C@H](CCC(=O)O)NC(=O)[C@H](CC(C)C)NC(=O)[C@](C)(Cc1ccccc1)NC(=O)[C@H](CO)NC(=O)[C@](C)(CO)NC(=O)[C@@H](NC(=O)[C@H](CC(=O)O)NC(=O)[C@H](CO)NC(=O)[C@@H](NC(=O)[C@](C)(Cc1ccccc1)NC(=O)[C@H](CO)NC(=O)CNC(=O)[C@H](CCC(=O)O)NC(=O)C(C)(C)NC(=O)[C@@H](N)Cc1c[nH]cn1)[C@@H](C)O)C(C)C)C(=O)N[C@@H](C)C(=O)N[C@@](C)(Cc1ccccc1)C(=O)N[C@H](C(=O)N[C@H](C(=O)N[C@@](C)(CCCCN)C(=O)NCC(=O)NCC(N)=O)C(C)C)C(C)C [compound 137] | 6.6 pM | 3.8 pM | 5.2 pM | 50 pM | 63.7 pM | 36.2 pM | ≥ 27 nM | ≥ 27 nM | ≥ 27 nM | ≥ 27 nM |
|  |  |  |  | CC[C@H](C)[C@H](NC(=O)[C@](C)(Cc1ccccc1)NC(=O)[C@H](CCC(=O)O)NC(=O)[C@H](CCCCNC(=O)CCCCCNC(=O)CCCCCCCCCCCOc1ccc(C(=O)O)cc1)NC(=O)[C@H](C)NC(=O)[C@H](C)NC(=O)[C@H](CCC(=O)O)NC(=O)CNC(=O)[C@H](CCC(=O)O)NC(=O)[C@H](CC(C)C)NC(=O)[C@](C)(Cc1ccccc1)NC(=O)[C@H](CO)NC(=O)[C@](C)(CO)NC(=O)[C@@H](NC(=O)[C@H](CC(=O)O)NC(=O)[C@H](CO)NC(=O)[C@@H](NC(=O)[C@](C)(Cc1ccccc1)NC(=O)[C@H](CO)NC(=O)CNC(=O)[C@H](CCC(=O)O)NC(=O)C(C)(C)NC(=O)[C@@H](N)Cc1c[nH]cn1)[C@@H](C)O)C(C)C)C(=O)N[C@@H](C)C(=O)N[C@@](C)(Cc1ccccc1)C(=O)N[C@H](C(=O)N[C@H](C(=O)N[C@@](C)(CCCCN)C(=O)NCC(=O)NCC(N)=O)C(C)C)C(C)C [compound 140] | 5.9 pM | 3.9 pM | 4.9 pM | 30 pM | 43.2 pM | 16.7 pM | ≥ 27 nM | ≥ 27 nM | ≥ 27 nM | ≥ 27 nM |
|  |  |  |  | CC[C@H](C)[C@H](NC(=O)[C@](C)(Cc1ccccc1)NC(=O)[C@H](CCC(=O)O)NC(=O)[C@H](CCCCNC(=O)CCCCCNC(=O)CCCCCNC(=O)CCCCCCCCCCCOc1ccc(C(=O)O)cc1)NC(=O)[C@H](C)NC(=O)[C@H](C)NC(=O)[C@H](CCC(=O)O)NC(=O)CNC(=O)[C@H](CCC(=O)O)NC(=O)[C@H](CC(C)C)NC(=O)[C@](C)(Cc1ccccc1)NC(=O)[C@H](CO)NC(=O)[C@](C)(CO)NC(=O)[C@@H](NC(=O)[C@H](CC(=O)O)NC(=O)[C@H](CO)NC(=O)[C@@H](NC(=O)[C@](C)(Cc1ccccc1)NC(=O)[C@H](CO)NC(=O)CNC(=O)[C@H](CCC(=O)O)NC(=O)C(C)(C)NC(=O)[C@@H](N)Cc1c[nH]cn1)[C@@H](C)O)C(C)C)C(=O)N[C@@H](C)C(=O)N[C@@](C)(Cc1ccccc1)C(=O)N[C@H](C(=O)N[C@H](C(=O)N[C@@](C)(CCCCN)C(=O)NCC(=O)NCC(N)=O)C(C)C)C(C)C [compound 141] | 8.7 pM | 5 pM | 6.9 pM | 41 pM | 44.7 pM | 36.7 pM | ≥ 27 nM | ≥ 27 nM | ≥ 27 nM | ≥ 27 nM |
|  |  |  |  | CC[C@H](C)[C@H](NC(=O)[C@](C)(Cc1ccccc1)NC(=O)[C@H](CCC(=O)O)NC(=O)[C@H](CCCCNC(=O)COCCOCCNC(=O)CCCCCCCCCCCOc1ccc(C(=O)O)cc1)NC(=O)[C@H](C)NC(=O)[C@H](C)NC(=O)[C@H](CCC(=O)O)NC(=O)CNC(=O)[C@H](CCC(=O)O)NC(=O)[C@H](CC(C)C)NC(=O)[C@](C)(Cc1ccccc1)NC(=O)[C@H](CO)NC(=O)[C@](C)(CO)NC(=O)[C@@H](NC(=O)[C@H](CC(=O)O)NC(=O)[C@H](CO)NC(=O)[C@@H](NC(=O)[C@](C)(Cc1ccccc1)NC(=O)[C@H](CO)NC(=O)CNC(=O)[C@H](CCC(=O)O)NC(=O)C(C)(C)NC(=O)[C@@H](N)Cc1c[nH]cn1)[C@@H](C)O)C(C)C)C(=O)N[C@@H](C)C(=O)N[C@@](C)(Cc1ccccc1)C(=O)N[C@H](C(=O)N[C@H](C(=O)N[C@@](C)(CCCCN)C(=O)NCC(=O)NCC(N)=O)C(C)C)C(C)C [compound 143] | 12 pM | 5.2 pM | 8.6 pM | 34 pM | 45.1 pM | 22.7 pM | ≥ 27 nM | ≥ 27 nM | ≥ 27 nM | ≥ 27 nM |
